Legend:
[1] = tested on: rat cardiomyoblasts (H9c2); test: Cytotoxicity, WST-1 metabolic activity, H9c2 cells; type: cell-based; settings: 72 h incubation, metabolic activity (WST-1), three experiments
Method: (§1) Stock solutions were prepared by dissolving pure compounds to a final concentration of 20 mM in DMSO. The normal rat kidney epithelial cells (NRK, ATCC no.: CRL-6509) and rat cardiomyoblasts (H9c2, ATCC no.: CRL-1446) were cultured in DMEM medium supplemented with 10% foetal bovine serum (FBS, Invitrogen, Carlsbad, CA, USA). When the cells reached 80% confluence, they were detached in a mild trypsin treatment (0.33 mg/mL trypsin for 5 min at 37 °C), centrifuged (160× g, 4 min), and reseeded in fresh medium to 25% confluence.
(§2) All media were supplemented with 1 IU/mL penicillin and 1 mg/mL streptomycin (both from Cambrex, Liège, Belgium) and incubated in a humidified atmosphere (37 °C, 5% CO2). […]
(§3) […] The plates were further incubated for two hours before the signal was recorded at 450 nm with a reference at 620 nm. […]
(§4) After the recording of WST-1, the cells were then fixed with 2% buffered formaldehyde (pH 7.4) with 0.01 mg/mL of the DNA-specific fluorescent dye, Hoechst 33342. The presence of dead (apoptotic or necrotic) cells was verified via differential interference contrast and fluorescence microscopy as previously described by Oftedal et al. and Myhren et al..
(§5) EC50 values were determined using four-parameter regression analysis described by Viktorsson et al. using SigmaPlot v14 software (Systat Software Inc., San Jose, CA, USA).

[2] = tested on: normal rat kidney epithelial cells (NRK); test: Cytotoxicity, WST-1 metabolic activity, NRK cells; type: cell-based; settings: Epithelial cell, 72 h incubation, metabolic activity (WST-1), three experiments
Method: as §1, §2, §3, §4, §5

[3] = tested on: acute myeloid leukaemia cell line MOLM13; test: Cytotoxicity, WST-1 metabolic activity, MOLM13 cells; type: cell-based; settings: Homo sapiens, MOLM-13; 72 h incubation, metabolic activity (WST-1), 3 independent experiments
Method: as §1
The AML cell line MOLM13 (DSMZ no.: ACC554 [24]) was cultured in RPMI-1640 medium enriched with 10% FBS 8mM L-glutamine (Sigma Life Science, London, UK). […]
as §3, §4, §5

[4] = cited from earlier work
[5] = tested on: myeloid leukaemia HL 60 cells; settings: cited from earlier work

In the case of `Cc1cc2c(c(C)c1CCOC1OC(CO)C(O)C(O)C1O)C(=O)C(C)(C)C2OC(=O)CC(=O)O` [Compound 14, 3(R)-O-malonyl pteroside D], the EC50 [1] is reported as > 200 µM, the EC50 [2] is reported as > 200 µM and the EC50 [3] is reported as 197.88 ± 0.18 µM.
For `CC1=C2C(=C[C@@](C)(CO)[C@@H]2O)C(=O)[C@](C)(O)C12CC2` [illudin S], the antibacterial activity [4] is listed as “significant antibacterial activity”.
For `CC1=C2C(=CC(C)(C)[C@@H]2O)C(=O)[C@](C)(O)C12CC2` [illudin M], the antibacterial activity [4] is given as “significant antibacterial activity” and the “cytotoxic effects against HL 60 cells” value [5] is given as 6 to 100 nM.

From paper PMC10708030, “Cytotoxic Natural Products Isolated from Cryptogramma crispa (L.) R. Br” (Molecules, 2023)
